Read-outs that look alike come from different tables or passages of the source.
Columns and labels:
[1] = Pharmacokinetics after i.v. administration; assay type: in vivo, Wistar rats; conditions: for Vd: read-out: Vdss
Procedure: For administration to Wistar rats, LAP was dissolved in DMSO:Tween 80:glucose 5% in a proportion of 15:5:80 (v/v/v), resulting in a solution of 1 mg/ml (for intravenous (i.v.) administration) and another of 5 mg/ml (for oral administration). LAP was administered to rats as an i.v. bolus dose at 2 mg/kg (n = 7) and at two oral doses of 10 (n = 8) and 25 mg/kg (n = 6). LAP salt was administered as i.v. (2 mg/kg, n = 6) and oral doses (30 mg/kg equivalent to 27.5 mg/kg of LAP, n = 8). The i.v. doses were injected into the lateral tail vein, and oral doses were given by gavage. The doses were chosen based on previous toxicological and pharmacodynamic studies. At predetermined time points (30 min before dosing and at 0.08, 0.25, 0.5, 1, 2, 4, 6, 8, 12, and 24 h) after LAP i.v. administration, blood samples (200–250 μl) were withdrawn into heparinized tubes via puncture of the lateral tail vein, opposite to the vein used for drug dosing. The same procedure was carried out after oral administration of LAP, with blood sampling at 0.25, 0.5, 1, 1.5, 2, 3, 6, 12, 24, and 30 h. After LAP sodium salt i.v. and oral dosing, blood samples were harvested up to 10 and 12 h, respectively. Plasma was obtained by centrifugation of blood samples (6800 × g, at 4 °C for 10 min) and stored at –80 °C until analysis by UPLC-MS/MS.
LAP and LAP sodium salt pharmacokinetic parameters after i.v. and oral administration were determined from individual plasma profiles by a noncompartmental approach (NCA). The peak plasma concentration (Cmax) and the time of maximum concentration (Tmax) were obtained by visual inspection of the data from the plasma concentration–time curve after oral dosing. Pharmacokinetic parameters such an elimination rate constant (λ), area under the curve (AUC0–∞), clearance (CLtot), half-life (t1/2), volume of distribution (Vdss), mean residence time (MRT), and bioavailability (Fabs) were determined using classical equations. The compartmental analyses were performed using SCIENTIST v.2.0.1 software (MicroMath®, USA). One- and two-compartment models with or without weighting schemes were evaluated. The best model to fit the data was chosen based on the random distribution of residuals, the correlation coefficient, and the model selection criterion (MSC) given by the software.
The individual plasma profiles of LAP and LAP sodium salt after i.v. administration were best described by a two-compartmental open model. Plasma profiles after oral administration with two different doses of LAP and one dose of LAP sodium salt were best described by the one-compartmental model.
LAP concentration in plasma samples was determined by a validated (FDA, US Food and Drug Administration, 2001) UPLC-MS/MS method. Analyses were run on an Acquity UPLC BEH (Waters Acquity™) C18 column (2.1 × 50 mm, 1.7 μm particle size), with a flow of 300 μl/min at 35 °C. A gradient constituted of water (A) and acetonitrile (B) acidified with 0.1% acetic acid was used as follows: 0 min (90% A), 1 min (75% A), 7 min (50% A), 8.5 min (0% A) and 9.5 min (100% A). For the triple quadrupole, MS parameters were set as follows: capillary voltage (2.20 kV); extractor (3.0 V) source temperature (150 °C), desolvation temperature (300 °C), cone gas flow (50 l/h), and desolvation gas flow (700 l/h). For quantification, a multiple reaction monitoring method (MRM) was applied. For LAP, the transition of m/z 243 > 187 using cone energy of 24 V and collision energy of 19 V was determined as most appropriate for quantification (Calibration curves between 1 and 20,000 ng/ml of LAP, R > 0.99, low quantification limit of 1 ng/ml, and detection limit of 0.1 ng/ml).
A total of 200 μl cold acetonitrile containing internal standard (2-methyl-amino-lapachol) at 5 μg/ml and 0.05% trifluoroacetic acid was added to 100 μl of plasma and vortexed for 20 s. Precipitated protein was removed by centrifugation (6800 × g at 4 °C for 10 min). […]

[2] = system: antigen-induced arthritis (AIA) in C57BL/6 mice; assay: Antigen-induced arthritis (AIA); assay type: in vivo
[3] = Wistar, rat, plasma, iv, 2 mg/kg, 2 mg/kg i.v., 2-Comp
[4] = Wistar, rat, plasma, iv, 2 mg/kg, 2 mg/kg i.v., NCA
[5] = 10 mg/kg orally, recall with mBSA 100 μg/ml for 96 h

In the case of `CC(C)=CCC1=C(O)C(=O)c2ccccc2C1=O` [LAP, 2-hydroxy-3-(3methyl-2-butenyl)-1,4-naphthoquinone], the CLtot ([1]; 2 mg/kg i.v., 2-Comp) is reported as 0.667 ± 0.167 mL/min/kg, the Vc ([1]; 2 mg/kg i.v., 2-Comp) is reported as 0.11 ± 0.03 L/kg and the a ([1]; 2 mg/kg i.v., 2-Comp) is reported as 10.0 ± 4.1 µg/mL. It also gave a b ([1]; 2 mg/kg i.v., 2-Comp) of 8.8 ± 3.1 µg/mL, a t1/2ß ([1]; 2 mg/kg i.v., 2-Comp) of 3.7 ± 0.5 h and a t1/2α ([1]; 2 mg/kg i.v., 2-Comp) of 0.6 ± 0.4 h. The ß ([1]; 2 mg/kg i.v., 2-Comp) was 0.19 ± 0.03 h⁻¹, the α ([1]; 2 mg/kg i.v., 2-Comp) was 1.76 ± 1.52 h⁻¹ and the CLtot ([1]; 2 mg/kg i.v., NCA) was 0.667 ± 0.167 mL/min/kg. For the same molecule, the λ ([1]; 2 mg/kg i.v., NCA) was 0.18 ± 0.04 h⁻¹, the AUC(0-inf) [1, 3] was 56400 ± 21600 ng·h/mL and the Vd [1, 3] was 0.17 ± 0.03 L/kg. The AUC(0-inf) [1, 4] was 56100 ± 20100 ng·h/mL, the MRT [1, 4] was 5.3 ± 1.2 h and the Vd [1, 4] was 0.19 ± 0.03 L/kg. For the same molecule, the half-life ([1]; Wistar, rat, plasma, iv, 2 mg/kg, 2 mg/kg i.v., NCA, read-out: t1/2 (converted)) was 4.1 ± 1.1 h, the linearity of pharmacokinetics ([1]; dose range investigated 2–25 mg/kg (i.v. and oral)) was “Linear pharmacokinetics” and the total clearance ([1]; intravenous administration, rats) was 0.67 ± 0.17 mL/min/kg. For the same molecule, the “leucocyte infiltration into the knee joint” value ([2]; 10 mg/kg orally once a day over 9 days, 6 h after mBSA challenge) was “remarkable reduction in leucocyte infiltration”, the “serum levels of anti-mBSA total IgG” value ([2]; 10 mg/kg orally once a day over 9 days, day 21) was “did not find differences” and the “mBSA-specific production of IFN-γ by draining lymph node cells and splenocytes” value [2, 5] was “significantly reduced”. The “mBSA-specific production of IL-17 by draining lymph node cells and splenocytes” value [2, 5] was “significantly reduced”.
